# Entries after “also recorded” stand apart in the source; their conditions may differ.
# How the values were obtained:
# male C57BL/Ks db/db mice [1] = test: Blood glucose in db/db mice (dietary curcumin or single i.p. injection); type: in vivo, mouse; conditions: for blood glucose after a single intraperitoneal injection: epoxomicin 0.1 mg/kg or celastrol 3 mg/kg i.p., male db/db mice, noted approximately 10 hours after injection; for duration of blood glucose lowering after injection: single i.p. injection
# Description: (§1) This translated into a daily consumption by the mice of roughly 1.0 to 1.5 g/kg/day.
# Male C57BU6J mice gradually develop obesity and moderate diabetes when placed on high-fat diets, a process quite analogous to that in humans. […] However, the loss of leptin effect on the C57BL/Ks background is not compensated for by β-cell hyperplasia and hyperinsulinemia. At a very young age these mice become severely hyperglycemic, hyperphagic, and polydipsic. As they mature, they start to lose weight, develop nephropathy, and ultimately die around age 40 weeks from diabetic complications.
# (§2) This effect was noted to last for at least 48 hours post-injection. Mice receiving vehicle in the celastrol and epoxomicin experiments were food entrained to the treatment group to avoid any acute effects on glucose levels from differences in food intake.
# male C57BL/Ks db/db mice [2] = test: Insulin tolerance test in db/db mice; type: in vivo, mouse; conditions: celastrol i.p., 24 hours after a single injection
# Procedure: as §2
# [3] = tested on: adiponectin (Acdc), Ccl2 (MCP-1); test: Gene expression in white adipose tissue of db/db mice after celastrol; type: in vivo, mouse; conditions: celastrol i.p. once daily for 3 days; male db/db mice
# [4] = Serum insulin in db/db mice; type: in vivo, mouse; conditions: for serum insulin: single i.p. dose, celastrol 3 mg/kg or epoxomicin 0.1 mg/kg, 24 hours post injection, male C57BL/Ks db/db mice
# Description: (§3) As FIGS. 19 and 20 A-C reveal, untreated ob/ob mice develop pancreatic β-cell hyperplasia and hyperinsulinemia, a phenomenon that ultimately allows them to recoup normoglycemia. The pancreatic islets in untreated C57BL/Ks db/db mice however, degenerate (FIG. 20 D-F).
# rat β-cell line INS-1 = test: INS-1 viable cell number (CellTiter-Blue Cell Viability Assay); type: cell-based; conditions: INS-1 cells, 24 hours
# Description: To follow-up on the potential ability of proteasome inhibition to improve β-cell function, we performed experiments using the rat β-cell line Ins-1.
# [5] = biological target: chymotrypsin-like activity of a purified 20S proteasome (Homo sapiens, UniProt P28074); conditions: reported (ref. 83); cited from earlier work
# [6] = biological target: T1, human prostate cancer cellular 26S proteasome (Homo sapiens, UniProt P28074); conditions: reported (ref. 83); cited from earlier work
# T1 construct: human prostate cancer cellular 26S proteasome
# [7] = tested on: human prostrate cancer growth in nude mice; conditions: tumor-bearing nude mice; 1-3 mg/kg/d (i.p.); cited from earlier work
# male C57BL/6J ob/ob mice [8] = test: Blood glucose in ob/ob mice on dietary curcumin; type: in vivo, mouse; conditions: dietary curcumin (3%), p<0.05
# [9] = tested on: DIO C57BL/6J, C57BL/6J ob/ob and C57BL/Ks db/db mice; test: Random fed glucose and HbA1c in the three mouse models of diabetes; type: in vivo
# male C57BL/6J DIO mice [10] = test: Glucose tolerance test in DIO mice; type: in vivo, mouse; conditions: dietary curcumin
# Procedure: as §1, §2
# male C57BL/6J ob/ob mice [11] = test: Insulin tolerance test in ob/ob mice; type: in vivo, mouse; conditions: dietary curcumin (3%)
# Procedure: as §1, §2
# male C57BL/6J ob/ob mice [12] = test: Body composition (Bruker NMR), food intake and liver in ob/ob mice; type: in vivo, mouse
# male C57BL/6J DIO mice [13] = test: Body composition, food intake and liver in DIO mice; type: in vivo, mouse
# male C57BL/Ks db/db mice [14] = test: Body composition (Bruker NMR), food intake and liver in db/db mice; type: in vivo, mouse; conditions: dietary curcumin (3%)
# [15] = tested on: TNF-α, Socs-3, Ccl2 (MCP-1 gene) and Ccr2 (MCP-1 receptor gene); test: Quantitative real-time PCR of hepatic inflammatory genes in ob/ob mice; type: in vivo, mouse; conditions: dietary curcumin, 10 weeks; male ob/ob mice
# Description: (§4) These included TNF-α, Socs-3, Ccl2 (MCP-1 gene) and Ccr2 (MCP-1 receptor gene).
# NFkB p65 = test: p65 activity assay (TransAM NFkB p65 Kit) in liver nuclear extracts of ob/ob mice; type: in vivo, mouse; conditions: dietary curcumin, 10 weeks; liver nuclear extract of ob/ob mice
# Description: as §4
# [16] = tested on: adiponectin (Acdc), F480 (Emr1); test: Quantitative real-time PCR of white adipose tissue of ob/ob mice; type: in vivo, mouse; conditions: dietary curcumin, 10 weeks; male ob/ob mice
# Description: (§5) Given that the adipose tissue of obese subjects is chronically inflamed and secretes diabetogenic adipokines, we investigated the possibility that proteasome inhibition improves diabetes by decreasing adipose inflammation in obese diabetic mice.
# [17] = Serum adiponectin in ob/ob mice; type: in vivo, mouse; conditions: curcumin-treated ob/ob mice (not shown)
# Description: as §5
# [18] = tested on: macrophages in adipose tissue of ob/ob mice; test: Adipose macrophage immunohistochemistry (F480 antibody) in ob/ob mice; type: in vivo, mouse; conditions: dietary curcumin; male C57BL/6J ob/ob mice
# [19] = tested on: pancreatic islets of C57BL/Ks db/db mice; test: Immunohistology of pancreatic islets in db/db mice; type: in vivo, mouse; conditions: curcumin-treated C57BL/Ks db/db mice
# Description: as §3
# [20] = tested on: diabetic streptozotocin-treated rat; conditions: oral curcumin therapy; preclinical studies, mostly streptozotocin-treated rat; cited from earlier work
# [21] = daily doses about 0.5 to about 3.0 mg/kg/d (i.p.); cited from earlier work
# [22] = tested on: Glucotoxic HIT-T15 β-cells; conditions: cited from earlier work
# [23] = curcumin-fed ob/ob mice vs controls (data not shown)
# [24] = dietary curcumin (3%), ob/ob mice
compound,measurement,setting,value
celastrol,blood glucose after a single intraperitoneal injection,male C57BL/Ks db/db mice [1],correction of hyperglycemia; also recorded: significantly lowers blood glucose
same,duration of blood glucose lowering after injection,male C57BL/Ks db/db mice [1]; male C57BL/Ks db/db mice,~2 days
same,AUC of ITT,male C57BL/Ks db/db mice [2],improved insulin tolerance; also recorded: significantly lower AUC of ITT
same,Ccl2 (MCP-1) expression in white adipose tissue,[3],significantly decreased adipose expression of Ccl-2; also recorded: decreasing expression of Ccl2 (MCP-1)
same,adiponectin (Acdc) expression in white adipose tissue,[3],significantly increased expression of adiponectin; also recorded: significantly increases expression of adiponectin (Acdc)
same,serum insulin,[4],significant increases in serum insulin; also recorded: significantly increase serum insulin
same,cell viability at highest concentrations,rat β-cell line INS-1,proved cytotoxic; also recorded: negative effects on cell viability
same,IC50,[5],2.5 µM
same,concentration inhibiting human prostate cancer cellular 26S proteasome,[6],1-5 μM/L
same,tumor growth,[7],inhibition of tumor growth
COc1cc(/C=C/C(=O)CC(=O)/C=C/c2ccc(O)c(OC)c2)ccc1O [curcumin],effect on hyperglycemia (blood glucose),male C57BL/6J ob/ob mice [8],significant protective effect against hyperglycemia
same,effect on hyperglycemia (blood glucose),"male C57BL/Ks db/db mice [1]; dietary curcumin (3%), male C57BL/Ks db/db mice, p<0.05",significant protection against hyperglycemia
same,HbA1c levels,"[9]; 3% dietary curcumin, all mouse models of diabetes tested",significant decreases; also recorded: decreases HbA1c percentage
same,random fed glucose,"[9]; 3% dietary curcumin, all three diabetic mice categories, as early as 2-3 weeks",significant decreases
same,HbA1c percentage in non-diabetic mice,"[9]; dietary curcumin (3%), non-diabetic mice",not affected
same,AUC of glucose tolerance test,male C57BL/6J DIO mice [10],improved glucose tolerance; also recorded: significantly lowers AUC of glucose
same,AUC of insulin tolerance test,male C57BL/6J ob/ob mice [11],decreased area under the curve (AUC); also recorded: significantly lowers AUC of insulin tolerance test
same,degree of liver steatosis,male C57BL/6J ob/ob mice [12]; [23],significantly lower
same,liver weight,male C57BL/6J ob/ob mice [12]; [23],significantly lower
same,adipose mass / body fat,male C57BL/6J ob/ob mice [12]; [24],significantly less body fat; also recorded: significantly decreases
same,body weight,male C57BL/6J ob/ob mice [12]; [24],weighed slightly but significantly less; also recorded: significantly decreases body weight
same,lean body mass (NMR),male C57BL/6J ob/ob mice [12]; [24],significantly more lean mass; also recorded: significantly increases lean body mass
same,body weight,"male C57BL/6J DIO mice [13]; 3% curcumin in food, DIO mice",weighed slightly but significantly less
same,liver weight,"male C57BL/6J DIO mice [13]; curcumin treatment, DIO mice",significantly lower; also recorded: significantly decreased
same,degree of liver steatosis,male C57BL/6J DIO mice [13]; curcumin-fed DIO mice vs controls (data not shown),significantly lower
same,body fat percentage / body fat,"male C57BL/6J DIO mice [13]; one month of curcumin treatment, DIO mice",significantly less body fat; also recorded: significantly decreased body fat percentage
same,body weight,male C57BL/Ks db/db mice [14],weighed more; also recorded: significantly increased
same,lean muscle mass (NMR),male C57BL/Ks db/db mice [14],significantly more lean mass; also recorded: significantly increased lean muscle mass
same,"hepatic expression of pro-inflammatory genes (TNF-α, Socs-3, Ccl2, Ccr2)",[15],significantly downregulated; also recorded: significantly lowers hepatic expression of pro-inflammatory genes
same,hepatic NF-κB activity,NFkB p65,significantly less NFkB activity; also recorded: significantly decreases hepatic NF-κB activity
same,F480 (Emr1) expression in white adipose tissue,[16],significantly decreased macrophage-specific Emr1 (F480) expression; also recorded: decreases F480 (Emr1) expression
same,adiponectin (Acdc) expression in white adipose tissue,[16],dramatically increased; also recorded: significantly increases expression of adiponectin (Acdc)
same,serum adiponectin levels,[17],significantly higher
same,adipose macrophage infiltration (F480 staining),[18],dramatic reduction in the number of macrophages; also recorded: significant reduction of adipose macrophage infiltration
same,serum insulin levels,"[4]; dietary curcumin, db/db mice",exhibit hyperinsulinemia; also recorded: significantly increased serum insulin levels
same,proliferating β-cells (nuclear Ks67 immunoreactivity),[19],contain some proliferating β-cells
same,pancreatic islet morphology (hyperplasia),[19]; age 20 weeks,islets actually become hyperplastic; also recorded: hyperplasia of the pancreatic islets
same,diabetes-related hyperglycemia or end-organ damage,[20],"prevents, delays, or ameliorates diabetes-related hyperglycemia or end-organ damage"
CC[C@H](C)[C@H](NC(=O)[C@H]([C@@H](C)CC)N(C)C(C)=O)C(=O)N[C@H](C(=O)N[C@@H](CC(C)C)C(=O)[C@@]1(C)CO1)[C@@H](C)O [epoxomicin],blood glucose after a single intraperitoneal injection,male C57BL/Ks db/db mice [1],correction of hyperglycemia; also recorded: significantly lowers blood glucose
same,duration of blood glucose lowering after injection,male C57BL/Ks db/db mice [1]; male C57BL/Ks db/db mice,~2 days
same,serum insulin,[4],significant increases in serum insulin; also recorded: significantly increase serum insulin
same,antiinflammatory activity,[21],exhibits antiinflammatory activity
CC(=O)N[C@@H](CSC(=O)[C@]1([C@@H](O)C(C)C)NC(=O)[C@H](C)[C@@H]1O)C(=O)O [lactacystin],MafA protein,[22],caused an accumulation of MafA protein
